In ChEMBL document CHEMBL5108009, “Positron Emission Tomography (PET) Imaging Tracers for Serotonin Receptors” (J Med Chem, 2022):

Experiments:
[1] = biological target: T1, 5-hydroxytryptamine receptor 1A (Homo sapiens, UniProt P08908)
T1 sequence (P08908 whole entry): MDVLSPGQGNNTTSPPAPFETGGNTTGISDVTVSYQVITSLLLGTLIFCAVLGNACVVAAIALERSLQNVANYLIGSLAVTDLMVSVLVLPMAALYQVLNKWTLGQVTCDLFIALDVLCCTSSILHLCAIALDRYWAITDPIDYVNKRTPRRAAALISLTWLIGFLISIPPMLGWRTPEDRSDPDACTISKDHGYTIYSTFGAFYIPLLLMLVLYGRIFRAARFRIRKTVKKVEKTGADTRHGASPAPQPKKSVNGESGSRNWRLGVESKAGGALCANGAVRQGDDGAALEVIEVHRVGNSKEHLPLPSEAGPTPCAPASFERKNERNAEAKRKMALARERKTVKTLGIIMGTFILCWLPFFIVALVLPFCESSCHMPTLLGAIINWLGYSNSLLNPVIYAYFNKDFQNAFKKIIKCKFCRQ

[2] = biological target: T2, 5-hydroxytryptamine receptor 2C (Homo sapiens) (UniProt P28335); test: Binding affinity to 5-HT2C (unknown origin); conditions: filed as agonist
T2 sequence (whole entry): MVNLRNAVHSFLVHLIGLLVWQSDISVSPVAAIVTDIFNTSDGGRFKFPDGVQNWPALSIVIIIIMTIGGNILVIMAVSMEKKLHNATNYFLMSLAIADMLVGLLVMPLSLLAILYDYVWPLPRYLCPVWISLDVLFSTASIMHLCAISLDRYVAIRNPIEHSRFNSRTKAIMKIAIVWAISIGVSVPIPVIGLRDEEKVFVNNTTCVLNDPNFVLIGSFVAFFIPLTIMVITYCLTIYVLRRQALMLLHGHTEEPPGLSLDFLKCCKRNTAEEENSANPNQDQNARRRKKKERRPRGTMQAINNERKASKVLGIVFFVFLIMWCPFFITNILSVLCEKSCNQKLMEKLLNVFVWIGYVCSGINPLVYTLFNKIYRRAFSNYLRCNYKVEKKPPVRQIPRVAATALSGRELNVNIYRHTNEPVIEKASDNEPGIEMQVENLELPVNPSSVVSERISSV

[3] = biological target: T2, 5-hydroxytryptamine receptor 2C (Homo sapiens); test: Agonist activity at 5-HT2C receptor (unknown origin); format: functional; conditions: filed as agonist
[4] = biological target: T3, Alpha-1A adrenergic receptor (Homo sapiens, UniProt P35348); test: Binding affinity to alpha 1A adrenergic receptor (unknown origin) assessed as inhibition constant
T3 sequence (P35348 whole entry): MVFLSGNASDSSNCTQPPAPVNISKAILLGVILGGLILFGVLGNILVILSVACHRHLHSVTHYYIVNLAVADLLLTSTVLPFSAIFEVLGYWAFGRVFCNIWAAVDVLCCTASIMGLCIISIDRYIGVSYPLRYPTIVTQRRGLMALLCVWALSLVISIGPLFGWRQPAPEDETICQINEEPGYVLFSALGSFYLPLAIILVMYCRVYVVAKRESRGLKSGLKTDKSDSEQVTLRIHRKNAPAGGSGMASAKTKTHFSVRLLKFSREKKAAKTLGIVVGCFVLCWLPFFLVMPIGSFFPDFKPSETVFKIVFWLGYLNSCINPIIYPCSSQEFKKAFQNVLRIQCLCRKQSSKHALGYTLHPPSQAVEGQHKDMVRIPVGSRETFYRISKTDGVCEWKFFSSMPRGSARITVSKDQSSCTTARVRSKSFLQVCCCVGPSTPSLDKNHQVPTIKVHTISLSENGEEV

[5] = Ratio of drug uptake in rat temporal cortex to cerebellum by measuring radioactivity at 20 mins postinjection; format: ADME, organism-based; conditions: in vivo
[6] = Ratio of drug uptake in rat temporal cortex to cerebellum by measuring radioactivity at 10 mins postinjection; format: ADME, organism-based; conditions: in vivo
[7] = Drug uptake in pig brain cortex assessed as non-displaceable binding potential; format: ADME, tissue-based, Sus scrofa; conditions: in vivo
[8] = biological target: 5-hydroxytryptamine receptor 2B (Homo sapiens, UniProt P41595)
Chain of 5-hydroxytryptamine receptor 2B (P41595 whole entry): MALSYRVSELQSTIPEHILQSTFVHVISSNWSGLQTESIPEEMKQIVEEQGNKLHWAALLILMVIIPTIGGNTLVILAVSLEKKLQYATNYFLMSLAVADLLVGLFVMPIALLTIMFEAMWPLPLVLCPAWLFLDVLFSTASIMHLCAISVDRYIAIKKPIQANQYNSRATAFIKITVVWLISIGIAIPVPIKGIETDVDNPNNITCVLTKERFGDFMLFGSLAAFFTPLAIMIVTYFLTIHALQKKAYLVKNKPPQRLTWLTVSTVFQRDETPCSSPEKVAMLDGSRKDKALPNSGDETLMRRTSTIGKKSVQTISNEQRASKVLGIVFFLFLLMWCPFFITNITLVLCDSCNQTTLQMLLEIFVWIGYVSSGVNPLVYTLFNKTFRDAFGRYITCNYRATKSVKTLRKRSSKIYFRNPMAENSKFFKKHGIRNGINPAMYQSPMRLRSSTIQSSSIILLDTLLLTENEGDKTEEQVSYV

[9] = biological target: T4, 5-hydroxytryptamine receptor 1A (Rattus norvegicus, UniProt P19327)
T4 sequence (P19327 whole entry): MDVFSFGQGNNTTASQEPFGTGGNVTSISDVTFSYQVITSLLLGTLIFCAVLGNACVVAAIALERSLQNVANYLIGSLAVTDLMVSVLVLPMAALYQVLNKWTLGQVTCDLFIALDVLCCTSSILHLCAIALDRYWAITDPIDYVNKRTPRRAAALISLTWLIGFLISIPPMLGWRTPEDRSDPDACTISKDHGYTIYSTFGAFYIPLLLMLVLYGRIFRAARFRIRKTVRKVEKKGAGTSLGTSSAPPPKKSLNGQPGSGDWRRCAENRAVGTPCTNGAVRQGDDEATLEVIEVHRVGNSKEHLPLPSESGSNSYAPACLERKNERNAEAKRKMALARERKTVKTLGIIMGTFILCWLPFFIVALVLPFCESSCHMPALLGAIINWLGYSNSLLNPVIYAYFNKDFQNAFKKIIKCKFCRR

[10] = Drug uptake in cynomolgus monkey in brain administered IV measured at 7.5 mins relative to control; format: ADME, tissue-based, Macaca fascicularis; conditions: in vivo, 0.125 h
[11] = Binding affinity to pig 5-HT1B receptor (unknown origin) assessed as inhibition constant
[12] = biological target: T1, 5-hydroxytryptamine receptor 1A; remark: listed apart in the source
[13] = biological target: 5-hydroxytryptamine receptor 1B (Homo sapiens, UniProt P28222)
Chain of 5-hydroxytryptamine receptor 1B (P28222 whole entry): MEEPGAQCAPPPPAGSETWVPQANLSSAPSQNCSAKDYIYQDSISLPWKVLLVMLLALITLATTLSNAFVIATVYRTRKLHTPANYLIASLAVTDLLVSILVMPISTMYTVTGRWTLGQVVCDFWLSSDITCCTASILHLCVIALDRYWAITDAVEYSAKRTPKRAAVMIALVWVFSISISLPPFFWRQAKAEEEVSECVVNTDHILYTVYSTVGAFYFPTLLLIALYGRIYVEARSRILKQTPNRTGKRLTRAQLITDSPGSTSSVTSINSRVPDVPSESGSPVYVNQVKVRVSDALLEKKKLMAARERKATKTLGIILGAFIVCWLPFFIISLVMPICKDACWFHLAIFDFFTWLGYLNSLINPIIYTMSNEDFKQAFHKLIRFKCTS

[14] = biological target: 5-hydroxytryptamine receptor 5A (Homo sapiens, UniProt P47898); test: Binding affinity to 5-HT5A receptor (unknown origin) assessed as inhibition constant
Chain of 5-hydroxytryptamine receptor 5A (P47898 whole entry): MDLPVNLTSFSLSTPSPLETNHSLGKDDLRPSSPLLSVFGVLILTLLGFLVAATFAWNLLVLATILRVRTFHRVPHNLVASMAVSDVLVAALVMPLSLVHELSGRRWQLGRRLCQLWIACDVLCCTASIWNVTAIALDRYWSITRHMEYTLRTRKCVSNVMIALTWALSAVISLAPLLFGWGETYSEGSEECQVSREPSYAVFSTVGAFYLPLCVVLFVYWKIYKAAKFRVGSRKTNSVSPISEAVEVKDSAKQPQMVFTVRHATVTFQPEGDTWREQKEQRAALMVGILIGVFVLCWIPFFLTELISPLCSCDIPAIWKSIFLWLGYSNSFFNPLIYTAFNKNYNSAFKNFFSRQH

[15] = biological target: T5, 5-hydroxytryptamine receptor 7 (Homo sapiens, UniProt P34969)
T5 sequence (P34969 whole entry): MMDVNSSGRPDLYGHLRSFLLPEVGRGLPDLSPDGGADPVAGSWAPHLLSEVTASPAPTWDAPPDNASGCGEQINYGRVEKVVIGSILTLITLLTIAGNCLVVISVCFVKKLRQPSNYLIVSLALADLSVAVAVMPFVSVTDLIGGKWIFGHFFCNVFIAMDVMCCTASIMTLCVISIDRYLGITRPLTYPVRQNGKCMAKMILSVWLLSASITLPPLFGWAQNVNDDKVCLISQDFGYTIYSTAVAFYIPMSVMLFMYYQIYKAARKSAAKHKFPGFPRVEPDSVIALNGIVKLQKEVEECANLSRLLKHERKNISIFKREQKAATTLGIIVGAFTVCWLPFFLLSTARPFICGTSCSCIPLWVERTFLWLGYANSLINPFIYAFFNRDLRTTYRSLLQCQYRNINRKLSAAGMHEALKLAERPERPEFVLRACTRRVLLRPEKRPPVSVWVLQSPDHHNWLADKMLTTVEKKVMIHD

[16] = biological target: T6, 5-hydroxytryptamine receptor 2C (Homo sapiens, UniProt P28335)
T6 sequence (P28335 whole entry): T2 sequence (whole entry)

[17] = biological target: 5-hydroxytryptamine receptor 1D (Homo sapiens, UniProt P28221); test: Binding affinity to 5-HT1D (unknown origin) assessed as inhibition constant
Chain of 5-hydroxytryptamine receptor 1D (P28221 whole entry): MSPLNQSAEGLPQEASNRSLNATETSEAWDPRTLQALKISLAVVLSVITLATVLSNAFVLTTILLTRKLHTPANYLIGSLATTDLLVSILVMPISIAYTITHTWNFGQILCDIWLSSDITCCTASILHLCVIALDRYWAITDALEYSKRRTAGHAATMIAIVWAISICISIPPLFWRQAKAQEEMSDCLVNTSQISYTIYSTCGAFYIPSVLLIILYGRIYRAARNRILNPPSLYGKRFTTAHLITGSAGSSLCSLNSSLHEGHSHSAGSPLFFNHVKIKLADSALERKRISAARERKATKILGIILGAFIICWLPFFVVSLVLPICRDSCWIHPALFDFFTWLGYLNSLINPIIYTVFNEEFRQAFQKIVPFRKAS

[18] = biological target: 5-hydroxytryptamine receptor 2A (Homo sapiens, UniProt P28223)
Chain of 5-hydroxytryptamine receptor 2A (P28223 whole entry): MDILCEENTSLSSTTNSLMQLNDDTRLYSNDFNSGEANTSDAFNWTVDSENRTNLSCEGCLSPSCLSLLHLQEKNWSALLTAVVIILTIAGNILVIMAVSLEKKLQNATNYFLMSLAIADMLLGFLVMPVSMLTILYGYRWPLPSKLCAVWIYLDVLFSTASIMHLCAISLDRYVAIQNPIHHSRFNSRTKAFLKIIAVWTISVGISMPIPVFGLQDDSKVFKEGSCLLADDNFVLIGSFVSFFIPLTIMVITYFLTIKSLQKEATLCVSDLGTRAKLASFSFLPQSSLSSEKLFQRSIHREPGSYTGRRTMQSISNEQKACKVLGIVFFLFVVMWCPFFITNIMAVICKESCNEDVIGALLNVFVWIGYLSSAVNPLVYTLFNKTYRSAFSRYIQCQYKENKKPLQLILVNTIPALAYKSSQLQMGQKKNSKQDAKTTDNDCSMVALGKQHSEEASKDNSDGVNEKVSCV

[19] = biological target: T1, 5-hydroxytryptamine receptor 1A; test: Binding affinity to 5-HT1A receptor in human HeLa cell membrane assessed as inhibition constant by Packard top-counter analysis; format: cell membranes
[20] = biological target: T5, 5-hydroxytryptamine receptor 7; test: Binding affinity to human recombinant 5-HT7 receptor expressed in CHO cells assessed as inhibition constant; format: cell-based
[21] = Drug uptake in pig brain cortex measured at 10 to 20 mins postinjection; format: ADME, organism-based, Sus scrofa; conditions: in vivo, time 10-20 min

O=C(NCCN1CCN(c2cccc(C(F)(F)F)n2)CC1)c1ccc(F)cc1
Ki [1]: 0.5 nM

c1cc2c3c(c1)[C@H]1CCC[C@H]1N3CCNC2
K [2]: 10 nM
K [3]: 8 nM

COc1ccccc1N1CCN(CCCCc2ccc3c(c2)oc(=O)n3C)CC1
Ki [1]: 0.04 nM

COc1ccccc1N1CCN(CCNC(=O)c2ccncc2)CC1
Ki [4]: 20 nM

COc1ccccc1N1CCN(CCN(c2cccc(Br)n2)[11C](=O)N2CCCCC2)CC1
Ratio [5]: 3
Ratio [6]: 1.9

COc1cc(C(F)(F)F)c(OC)cc1CCNCc1ccccc1O[11CH3]
Drug uptake [7]: 0.82

CCCN(CCC)[C@@H]1CCc2cccc(SC)c2C1
Ki [1]: 0.6 nM

CC(C)c1cc(-c2ccc(F)c3ccccc23)nc(N)n1
Ki [8]: 0.3 nM

CCCN(CCCSC)C1CCc2cccc(O)c2C1 (racemic)
Ki [1]: 0.19 nM

CCCN(CCC)C1CCc2cccc(SC)c2C1 (racemic)
IC50 [9]: 1.2 nM

COc1cc(CCNCc2ccccc2F)c(O[11CH3])cc1I
Drug uptake [7]: 0.17

COc1cccc2c1CCCC2CCCN1CCN(c2ccccc2)CC1 (stereo unspecified)
Ki [1]: 0.5 nM

COc1ccccc1N1CCN(CCN(c2cccc(F)n2)[11C](=O)C2CCCCC2)CC1
Drug uptake [10]: 8%

CN1CCN(c2cccc3c2C[C@@H](NC(=O)c2ccc(N4CCOCC4)cc2)CC3)CC1
Ki [11]: 0.46 nM

O=C(C1CCCCC1)N(CCN1CCN(c2ccccc2O)CC1)c1ccccn1
Ki [1]: 1.4 nM
Ki [4]: 364 nM

CCC(=O)Nc1ccc2[nH]cc(C3CCN(C)CC3)c2n1
Ki [8]: > 300 nM
Ki [12]: > 300 nM
Ki [13]: > 300 nM
Ki [14]: > 300 nM
Ki [15]: > 300 nM
Ki [16]: > 300 nM
Ki [17]: > 300 nM

COC(=O)N1CCN(c2ccc(NC(=O)C3CCc4cc(F)cc(N5CCN([11CH3])CC5)c4O3)cc2)CC1 (stereo unspecified)
Ki [11]: 0.5 nM

CN1CCN(c2cc(F)cc3c(=O)cc(C(=O)Nc4ccc(N5CCOCC5)c(F)c4)oc23)CC1
Ki [11]: 0.13 nM

COc1cc(Br)c(OC)c(CCNCc2cccc(F)c2)c1
Ki [18]: 2.7 nM

c1cc2c3c(c1)[C@H]1CCC[C@H]1CN3CCNC2
K [2]: 3 nM
K [3]: 8 nM

COc1ccccc1N1CCN(CCN(C(=O)N2CCCCC2)c2cccc(Br)n2)CC1
Ki [19]: 0.31 nM

CCc1cc(OC)cc(CCNCc2cccc(F)c2)c1OC
Ki [18]: 2.4 nM

Cc1[nH]c2ccc(NC(=O)c3ccc(F)cc3)cc2c1CCN(C)C
Ki [8]: > 260 nM
Ki [12]: > 260 nM
Ki [13]: > 260 nM
Ki [14]: > 260 nM
Ki [15]: > 260 nM
Ki [16]: > 260 nM
Ki [17]: > 260 nM

COc1ccccc1N1CCN(CCCN/C(=N\C#N)c2ccccn2)CC1
Ki [4]: 20 nM

[11CH3]N1CCN(c2cccc3c2O[C@@H](C(=O)Nc2ccc(N4CCOCC4)cc2)CC3)CC1
Ki [11]: 0.3 nM

COc1ccccc1N1CCN(CCN(C(=O)N2CCCCC2)c2cccc(F)n2)CC1
Ki [19]: 0.51 nM

COc1c(Br)cc([18F])cc1CCNCc1ccccc1O
Ki [18]: 7.2 nM

CN1CCN(c2cccc3c2C[C@H](NC(=O)c2ccc(OS(C)(=O)=O)cc2)CC3)CC1
Ki [11]: 0.25 nM

COc1cc(CCN)c(O[11CH3])cc1I
Drug uptake [7]: 0.17

[11CH3]Sc1cccc(C(=O)NC[C@H]2CCCN2CCc2ccccc2)c1
Ki [1]: 160 nM

CCCN(CCCCC1C(=O)CC2(CCCC2)CC1=O)[C@H]1CCc2cccc(OC)c2C1
Ki [1]: 0.9 nM

COc1ccccc1N1CCN(CCNC(=O)C2CCCCC2)CC1
IC50 [9]: 4.3 nM

[11CH3]Oc1ccccc1N1CCN(CCCN/C(=N\C#N)c2ccccn2)CC1
Ki [1]: 0.8 nM

COc1ccccc1N1CCN(CCNC(=O)C2CC3CCC2CC3)CC1 (stereo unspecified)
IC50 [9]: 1 nM

[11CH3]N1CCN(c2cccc3c2OC(C(=O)Nc2ccc(N4CCOCC4)cc2)CC3)CC1 (racemic)
Ki [11]: 0.4 nM

CC1CCN(CCC[C@H]2CCCN2S(=O)(=O)c2ccccc2F)CC1
Ki [20]: 7.6 nM

CC(=O)Nc1ccc2[nH]cc(C3CCN(C)CC3)c2n1
Ki [8]: > 240 nM
Ki [12]: > 240 nM
Ki [13]: > 240 nM
Ki [14]: > 240 nM
Ki [15]: > 240 nM
Ki [16]: > 240 nM
Ki [17]: > 240 nM

O=S(=O)(c1ccccc1F)N1CCC[C@@H]1CCCN1CCN(c2ccccn2)CC1
Ki [20]: 0.17 nM

CC1CCN(CCC[C@H]2CCCN2S(=O)(=O)c2ccc(F)cc2)CC1
Ki [20]: 16 nM

COc1cc(CCNCc2ccccc2OC)c(O[11CH3])cc1I
SUV [21]: 0.8

O=C(NCCN1CCN(C2CCCc3ccccc32)CC1)c1ccc([18F])cc1 (stereo unspecified)
Ki [1]: 0.5 nM

Cc1ccc(N2CCN([11CH3])CC2)c2nc(C(=O)Nc3ccc(N4CCOCC4)cc3)ccc12
Ki [11]: 0.2 nM

COc1ccccc1N1CCN(CCNC(=O)c2ccccn2)CC1
Ki [4]: 20 nM

COc1c(Br)cc([18F])cc1CCNCc1cccc2c1OCO2
Ki [18]: 1.7 nM

COc1ccccc1N1CCN(CCN(C(=O)c2ccc(F)c(C)c2)c2ccccn2)CC1
Ki [4]: 13 nM

COc1cc(Br)c(O[11CH3])cc1CCNCc1ccccc1OC
SUV [21]: 0.8

[11CH3]N1CCN(c2cccc3c2O[C@H](C(=O)Nc2ccc(N4CCOCC4)cc2)CC3)CC1
Ki [11]: 0.6 nM

O=S(=O)(c1ccccc1F)N1CCC[C@@H]1CCCN1CCN(c2ccc(Cl)cc2)CC1
Ki [20]: 0.22 nM

O=S(=O)(c1ccc(F)cc1)N1CCC[C@@H]1CCCN1CCN(c2ccc(Cl)cc2)CC1
Ki [20]: 0.32 nM
